For one experiment, the target named is Kallikrein-7 (Homo sapiens, UniProt P49862). As to the kind of experiment: Fluorescence Intensity-based biochemical primary high throughput dose response assay to identify activators of kallikrein-7 (K7) zymogen.
Experiment [1] concerns the target NAD-dependent protein deacylase sirtuin-5, mitochondrial (Homo sapiens, UniProt Q9NXA8). The experiment in a line: SIRT5 desuccinylase inhibitors, dose response, biochemical, fluorescence imaging, cherry-pick, set 5 (AID 720591).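 Note: desuccinylation of succinyl peptide AMC substrate read as fluorescence after trypsin release; potency of inhibitors that lower fluorescence and may act on trypsin instead.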
Experiment [2] in a line: Shn3 3'UTR reporter inhibitors, dose response, cell-based, Clone20 osteoblasts, firefly luciferase, cherry-picked (AID 624132).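 Note: firefly luciferase luminescence from reporter carrying the Shn3 3'UTR in osteoblasts.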 The class given is functional.
A short description of experiment [3]: HepG2 cell cytotoxicity, dose response, cytotoxicity control for Shn3 inhibitor project, CellTiter-Glo, cherry-picked (AID 624134). The class given is functional, cell-based. For orientation: Cellular ATP, detected with luciferase, serves as a proxy for viable cell number.
Experiment [4] in a line: reduction of Shn3 3'UTR firefly luciferase signal, dose response, Schnurri-3 inhibitor project, cell-based, Clone20 osteoblasts, cherry-pick, set 2 (AID 720490).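 Note: actives lower the luminescence signal as inhibitors.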 The class given is functional.
The target of a further experiment is Major prion protein (Homo sapiens, UniProt P04156). The class given is functional, cell-based.
The nature of experiment [5]: cells.
For the next experiment, the target named is T1, Streptokinase A (Streptococcus pyogenes serotype M1, UniProt P10520).
T1 sequence (P10520 whole entry): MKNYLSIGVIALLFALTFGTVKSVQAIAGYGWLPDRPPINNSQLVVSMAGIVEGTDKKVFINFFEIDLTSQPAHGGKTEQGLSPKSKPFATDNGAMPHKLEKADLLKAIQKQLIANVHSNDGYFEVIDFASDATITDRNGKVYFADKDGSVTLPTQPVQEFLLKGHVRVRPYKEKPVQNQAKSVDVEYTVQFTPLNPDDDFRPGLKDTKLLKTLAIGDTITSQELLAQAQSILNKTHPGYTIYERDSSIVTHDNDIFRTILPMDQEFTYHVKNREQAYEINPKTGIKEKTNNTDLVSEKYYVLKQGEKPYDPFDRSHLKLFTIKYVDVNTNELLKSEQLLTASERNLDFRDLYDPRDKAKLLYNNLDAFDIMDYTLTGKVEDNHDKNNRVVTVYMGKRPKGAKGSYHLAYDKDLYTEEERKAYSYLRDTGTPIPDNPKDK
The experiment in a line: S. pyogenes streptokinase expression inhibitors, potency, dose response, plasminogen activation absorbance, OD405 (AID 1914).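 Note: secreted streptokinase activity via plasminogen activation per viability signal from cell pellet.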 The class given is functional, Streptococcus pyogenes M1 GAS.

Experiment [6] relates to Streptococcus sp. 'group A'. As to the kind of experiment: growth inhibition of control SK(-) GAS strain, dose response, counter-screen for streptokinase expression inhibitor project, luminescence, kanamycin, BacTiterGlo, confirmation (AID 1900). The class given is functional, organism-based. A general note: Counterscreens check selectivity or assay interference.
The target in experiment [7] is T2, Heat shock factor protein 1 (Mus musculus, UniProt P38532).
T2 sequence (P38532 whole entry): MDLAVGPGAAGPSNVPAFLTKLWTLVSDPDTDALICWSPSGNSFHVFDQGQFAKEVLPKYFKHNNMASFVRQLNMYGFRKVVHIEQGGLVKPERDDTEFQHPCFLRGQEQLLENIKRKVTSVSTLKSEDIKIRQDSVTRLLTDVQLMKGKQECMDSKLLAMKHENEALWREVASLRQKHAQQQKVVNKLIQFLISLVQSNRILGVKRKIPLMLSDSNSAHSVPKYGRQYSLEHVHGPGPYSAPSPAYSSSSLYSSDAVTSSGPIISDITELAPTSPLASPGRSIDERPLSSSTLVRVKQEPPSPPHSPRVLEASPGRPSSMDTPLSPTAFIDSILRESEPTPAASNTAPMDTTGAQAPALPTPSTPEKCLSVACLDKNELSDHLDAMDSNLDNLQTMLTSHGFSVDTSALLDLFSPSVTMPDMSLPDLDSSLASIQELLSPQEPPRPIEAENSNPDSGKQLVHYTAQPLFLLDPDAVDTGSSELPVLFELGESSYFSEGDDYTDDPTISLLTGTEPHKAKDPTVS
As to the kind of experiment: inhibition of MG132-induced HSE-luciferase signal, confirmation, cell-based, NIH3T3, luminescence, dose retest (AID 2382).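 Note: NIH3T3 fibroblasts with HSF1-driven luciferase reporter stressed by proteasome inhibitor MG132; luminescence from HSF1-driven luciferase expression after 8 hours of MG132 stress.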 The class given is functional.

Another experiment deals with Streptococcus. The experiment in a line: Group A Streptococcus viability loss, dose response, counter-screen for streptokinase expression inhibitor project, luminescence, BacTiterGlo (AID 1915).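 Note: potency for reduction of bacterial viability or growth.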 The class given is functional, organism-based.
A short description of experiment [8]: Luminescence Cell-Based Dose Retest to Confirm Inhibitors of Cancer Stem Cells. [Related pubchem assays (depositor defined):AID2717, AID2721]. The class given is functional. The conditions noted are these: Homo sapiens.
A short description of experiment [9]: HEp-2 cell cytotoxicity, dose response, cytotoxicity control for RSV inhibitor project, HTS (AID 2410). The class given is functional. The conditions noted are these: human respiratory syncytial virus.
A short description of experiment [10]: control 3'UTR Renilla luciferase suppression, dose response, counter-screen for Shn3 inhibitor project, cell-based, Clone20-Shn3RL, cherry-picked (AID 624133). The class given is functional.
A further experiment deals with HEK293. The experiment in a line: inhibitors of LMP1-driven NF-kB reporter, dose response, cell-based, HEK293, luciferase, cherry-pick (AID 588343). The class given is functional. The conditions noted are these: Homo sapiens.
Experiment [11] is described as follows: cells. This is another data set of the same source.
Experiment [12] concerns the target Oxysterols receptor LXR-beta (Homo sapiens, UniProt P55055). The class given is functional, cell-based.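 Note: Cell-based luminescence dose-response assay of agonist activity at LXR, run as a confirmatory counterscreen to a daf-12 agonist screen; HEK293 cells with Gal4-LXR fusion and GAL4-driven luciferase reporter; agonist potency from rising luciferase signal of a Gal4-LXR reporter.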
Experiment [13] can be described thus: cytotoxicity toward NIH3T3 fibroblasts, dose response, counter-screen, cell-based, ATP luminescence, mouse fibroblasts (AID 2010).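 Note: cells exposed to compound for about 90 hours before reading.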 The class given is functional.
Another experiment addresses Cytochrome P450 2C19 (Homo sapiens, UniProt P33261). The experiment in a line: Cytochrome panel assay with activity outcomes. Panel member name: p450-cyp2c19 Compounds with AC50 equal or less than 10 uM are considered active. The class given is functional. The conditions noted are these: read-out: AC50.
The next experiment deals with T3, Cytochrome P450 1A2 (Homo sapiens, UniProt P05177).
T3 sequence (P05177 whole entry): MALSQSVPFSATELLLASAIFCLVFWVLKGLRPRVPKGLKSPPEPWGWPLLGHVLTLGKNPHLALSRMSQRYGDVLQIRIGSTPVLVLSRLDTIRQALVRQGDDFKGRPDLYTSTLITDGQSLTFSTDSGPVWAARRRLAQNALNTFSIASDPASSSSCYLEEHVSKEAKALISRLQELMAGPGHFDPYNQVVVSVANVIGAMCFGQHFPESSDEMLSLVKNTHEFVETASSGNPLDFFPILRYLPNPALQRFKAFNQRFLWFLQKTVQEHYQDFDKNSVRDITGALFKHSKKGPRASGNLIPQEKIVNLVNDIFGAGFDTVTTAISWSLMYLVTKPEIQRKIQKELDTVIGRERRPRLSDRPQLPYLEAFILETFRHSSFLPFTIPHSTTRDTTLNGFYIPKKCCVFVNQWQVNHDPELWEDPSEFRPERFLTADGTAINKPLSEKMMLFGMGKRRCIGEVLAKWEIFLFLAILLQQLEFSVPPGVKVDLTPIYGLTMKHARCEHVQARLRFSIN

Experiment [14] is described as follows: inhibitors of intracellular T. cruzi replication, confirmation, NIH3T3 host cells, beta-gal luminescence (AID 2044).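 Note: intracellular parasites grown in NIH/3T3 mouse fibroblasts as host cells; luminescent beta-galactosidase reporter signal from transgenic T. cruzi replicating inside host cells; inhibitors lower the luminescence signal.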 The class given is functional, cell-based.
Experiment [15] can be described thus: Luminescent dose response cell-based high throughput screening assay for inhibitors of the Janus kinase 2 mutant JAK2V617F. [Related pubchem assays: 1446 (Primary screen.), 1521 (Confirmation assay.), 1486 (Counter screen.)]. The class given is functional.
Experiment [16] is described as follows: HeLa 2N DNA content increase, dose response, cell-based, IC50 (AID 1117349). The class given is functional.
Experiment [17] can be described thus: HeLa 4N DNA content increase, dose response, cell-based, IC50 (AID 1117351). The class given is functional.

The source of these data is ChEMBL document CHEMBL1201862, “PubChem BioAssay data set” (2004).

Active and inactive are the calls of the source.

By EC50 is commonly meant the concentration at which the effect is half-maximal. For `COC(=O)C1=CN(CC2CCCO2)C=C(C(=O)OC)C1c1ccsc1` (stereo not drawn), on Kallikrein-7, the EC50 is > 69.5 µM (inactive).
As usually defined, the AC50 is the midpoint of the concentration-response curve, whichever way the signal moves. `O=C(NCC1(N2CCOCC2)CCCCC1)c1cccc(S(=O)(=O)Nc2ccc(F)cc2)c1`: in experiment [1], the AC50 is > 30 µM (inactive).
Regarding `O=C(Nc1nc(-c2ccccc2)cs1)C1CCCCN1S(=O)(=O)c1ccccc1` (stereo not drawn), the results for the AC50 in experiment [2], in [3] and in experiment [4] were 5.14 µM (active), 58 µM (active) and 5.89 µM (active), respectively.
A word on the IC50: it is the midpoint of a concentration-inhibition curve. In general, CC50 refers to the concentration giving 50% cytotoxicity. Regarding `OC(COc1ccc2ccccc2c1Br)Cn1cnc(-c2ccccc2)c1` (stereo not drawn), the figures for the IC50 at Major prion protein and in “cells [5]” were 4.17 µM (active) and > 138 µM (inactive), respectively. The EC50 on Streptokinase A was 9.22 µM (active); in [6] it was 6.29 µM (active); in [7], > 195 µM (not active); in the experiment with Streptococcus it was 21.7 µM (active). The AC50 in [8] is 5.02 µM (active). For the same molecule, the CC50 in experiment [9] is 9.42 µM (active).
In the case of `O=C(Nc1ccc(Cl)cc1)c1cc(S(=O)(=O)N2CCOCC2)cs1`, the concentration at half-maximal activity (AC50) in experiment [10] is 14.7 µM (active); in [2], 4.23 µM (active); in experiment [3], 46.9 µM (active); in experiment [4] it was 4.83 µM (active).
Take `c1ccc(-c2nnc(-c3ccccn3)s2)nc1`: in the experiment on HEK293, the concentration at half-maximal activity (AC50) is 4.63 µM (active). The EC50 (in “cells [11]”; in experiment [12]) was > 67.5 µM (inactive) in each case.
With `COc1ccc(N2CCc3c(C)nc4c(OC)cc(OC)cc4c32)c(OC)c1`, the EC50 in [13] was > 60 µM (not active); in experiment [14], 0.839 µM (active). Also, the values for the AC50 at Cytochrome P450 2C19 and at Cytochrome P450 1A2 were 28.2 µM (inconclusive) and 22.4 µM (inconclusive), respectively. For the same molecule, the half-inhibitory concentration (IC50) in [15] was 1.87 µM (active).
With `Cc1ccc(SCc2cn3ccccc3n2)cc1`, in experiment [1], the AC50 was > 30 µM (inactive).
As to `CCCN(CCC)C(=O)C(CCC(=O)OCCCN1CCN(CCOC(=O)Cc2c(C)n(C(=O)c3ccc(Cl)cc3)c3ccc(OC)cc23)CC1)NC(=O)c1ccccc1` (stereo not drawn) [PROGLUMETACIN], the IC50 in experiment [16] and in experiment [17] was > 10 µM (inactive) each time.
